Data on 24 compounds can be found in patent EP0417790B1, “S-triazolo[3,4-i]purine derivatives” (Kyowa Hakko Kogyo Co., Ltd., priority 1989, dated 1991).

Where two headings read alike, the source gives them in different places. Some results are limits rather than exact numbers.

The test system of one data set is Wistar male rats. Put plainly: Diuretic activity. The data set is classed as in vivo. The following applies: Rattus norvegicus, po, 25 mg/kg orally, urine taken for 6 hours. The procedure: Wistar male rats weighing 150 to 300 g were used after fasting for 18 hours. […] The test was performed using 3 groups per test compound, and each group consists of 3 animals. The urine was metered by a measuring cylinder and electrolytes (Na^+ and K^+) in the urine were analyzed by flame photometer (model […]: Hitachi Ltd.). Parameters in Table 3 are represented by relative value for control.

The test system of a further data set is male dd-mice. The data set can be described thus: Acute toxicity. To be noted: Minimum lethal dose, oral, mortality observed for seven days. The data set is classed as in vivo. As to the method: The compounds were orally administrated to male dd-mice weighing 20 ± 1 g. Minimum lethal dose (MLD) was determined by observing the mortality for seven days after the administration.

[1] abbreviates: relative value for control (1.00), read-out: Na^+/K^+.
Where [2] appears, read: relative value for control (100), read-out: Excretion of K^+.
Setting [3] is: relative value for control (100), read-out: Excretion of Na^+.
Setting [4] is: relative value for control (100), read-out: Urine volume.

For `CCCn1c(=O)n2c(-c3ccccc3OC)nnc2c2c1ncn2C` [Compound 7, 6,9-Dihydro-3-(2-methoxyphenyl)-9-methyl-6-n-propyl-5H-1,2,4-triazolo[3,4-i]purin-5-one], the response vs control in vivo at 25 mg/kg came to 133% with Wistar male rats (setting [1]), 122% in the data set with Wistar male rats (setting [2]), 162% in the data set on Wistar male rats (setting [3]) and 173% with Wistar male rats (setting [4]). This compound also registered an MLD in the data set on male dd-mice of 300 mg/kg.

`CCCn1c(=O)n2c(-c3ccccc3N)nnc2c2c1ncn2C` [Compound 13, 3-(2-Aminophenyl)-6,9-dihydro-9-methyl-6-n-propyl-5H-1,2,4-triazolo[3,4-i]purin-5-one] showed an MLD in the data set on male dd-mice greater than 300 mg/kg.

`CCCn1c(=O)n2c(-c3ccc(C(F)(F)F)cc3)nnc2c2c1ncn2C` [Compound 15, 6,9-Dihydro-9-methyl-6-n-propyl-3-(4-trifluoromethylphenyl)-5H-1,2,4-triazolo[3,4-i]purin-5-one] came in with an MLD in the data set with male dd-mice greater than 300 mg/kg.

As for `CCCn1c(=O)n2c(-c3ccc([N+](=O)[O-])cc3)nnc2c2c1ncn2C` [Compound 16, 6,9-Dihydro-9-methyl-3-(4-nitrophenyl)-6-n-propyl-5H-1,2,4-triazolo[3,4-i]purin-5-one], the response vs control in vivo at 25 mg/kg with Wistar male rats (setting [1]) came to 111%; with Wistar male rats (setting [2]) it was 175%; with Wistar male rats (setting [3]) it was 194%; with Wistar male rats (setting [4]) it was 170%. Moreover, the MLD in the data set on male dd-mice was greater than 300 mg/kg.

Consider `CCCn1c(=O)n2c(-c3ccc(F)cc3)nnc2c2c1ncn2C` [Compound 17, 6,9-Dihydro-3-(4-fluorophenyl)-9-methyl-6-n-propyl-5H-1,2,4-triazolo[3,4-i]purin-5-one], for which the response vs control in vivo at 25 mg/kg amounted to 142% in the data set with Wistar male rats (setting [1]), 134% in the data set on Wistar male rats (setting [2]), 179% with Wistar male rats (setting [3]) and 178% in the data set with Wistar male rats (setting [4]). The MLD in the data set on male dd-mice is given as greater than 300 mg/kg.

Consider `CCCn1c(=O)n2c(-c3ccc(N(C)C)cc3)nnc2c2c1ncn2C` [Compound 18, 6,9-Dihydro-3-(4-dimethylaminophenyl)-9-methyl-6-n-propyl-5H-1,2,4-triazolo[3,4-i]purin-5-one], for which the response vs control in vivo at 25 mg/kg was 109% with Wistar male rats (setting [1]), 129% in the data set on Wistar male rats (setting [2]), 141% in the data set on Wistar male rats (setting [3]) and 155% with Wistar male rats (setting [4]). The compound also yielded an MLD with male dd-mice greater than 300 mg/kg.

On to `CCCn1c(=O)n2c(-c3cc(Cl)ccc3Cl)nnc2c2c1ncn2C` [Compound 19, 3-(2,5-Dichlorophenyl)-6,9-dihydro-9-methyl-6-n-propyl-5H-1,2,4-triazolo[3,4-i]purin-5-one], for which the MLD in the data set with male dd-mice was greater than 300 mg/kg.

For the compound `CCCn1c(=O)n2c(-c3ccc(Cl)c(Cl)c3)nnc2c2c1ncn2C` [Compound 20, 3-(3,4-Dichlorophenyl)-6,9-dihydro-9-methyl-6-n-propyl-5H-1,2,4-triazolo[3,4-i]purin-5-one], the MLD in the data set with male dd-mice is on record as greater than 300 mg/kg.

`CCCn1c(=O)n2c(-c3ccc(OC)c(OC)c3)nnc2c2c1ncn2C` [Compound 21, 6,9-Dihydro-3-(3,4-dimethoxyphenyl)-9-methyl-6-n-propyl-5H-1,2,4-triazolo[3,4-i]purin-5-one]: in the data set with male dd-mice, the MLD is listed as greater than 300 mg/kg.

On to `CCCn1c(=O)n2c(-c3ccc(C(=O)OC)cc3)nnc2c2c1ncn2C` [Compound 22, 6,9-Dihydro-3-(4-methoxycarbonylphenyl)-9-methyl-6-n-propyl-5H-1,2,4-triazolo[3,4-i]purin-5-one], for which the MLD in the data set with male dd-mice is on record as greater than 300 mg/kg.

In turn, `CCCn1c(=O)n2c(-c3ccc(C(=O)O)cc3)nnc2c2c1ncn2C` [Compound 23, 6,9-Dihydro-3-(4-carboxyphenyl)-9-methyl-6-n-propyl-5H-1,2,4-triazolo[3,4-i]purin-5-one] registered an MLD in the data set on male dd-mice greater than 300 mg/kg.

On to `CCCn1c(=O)n2c(-c3ccccc3)nnc2c2[nH]c(C3CCCC3)nc21` [Compound 26, 8-Cyclopentyl-6,9-dihydro-6-n-propyl-3-phenyl-5H-1,2,4-triazolo[3,4-i]purin-5-one], for which the MLD in the data set with male dd-mice is reported as greater than 300 mg/kg.

As to `CCCn1c(=O)n2c(C)nnc2c2[nH]c(C3CCCC3)nc21` [Compound 27, 8-Cyclopentyl-6,9-dihydro-3-methyl-6-n-propyl-5H-1,2,4-triazolo[3,4-i]purin-5-one], in the data set on male dd-mice, the MLD is reported as greater than 300 mg/kg.

In the data set on male dd-mice, `Cn1cnc2c1c1nnc(-c3ccccc3)n1c(=O)n2Cc1ccccc1` [Compound 28, 6-Benzyl-6,9-dihydro-9-methyl-3-phenyl-5H-1,2,4-triazolo-[3,4-i]purin-5-one] came in with an MLD greater than 300 mg/kg.

On to `CCCn1c(=O)n2c(-c3cccnc3)nnc2c2[nH]cnc21` [Compound 32, 6,9-Dihydro-6-n-propyl-3-(3-pyridyl)-5H-1,2,4-triazolo[3,4-i]purin-5-one], for which the response vs control in vivo at 25 mg/kg with Wistar male rats (setting [1]) amounted to 152%; in the data set with Wistar male rats (setting [2]), 129%; in the data set with Wistar male rats (setting [3]), 196%; in the data set on Wistar male rats (setting [4]), 195%.

For the compound `CCCn1c(=O)n2c(-c3cccs3)nnc2c2[nH]cnc21` [Compound 33, 6,9-Dihydro-6-n-propyl-3-(2-thienyl)-5H-1,2,4-triazolo[3,4-i]purin-5-one], the MLD with male dd-mice is greater than 300 mg/kg.

`CCCn1c(=O)n2cnnc2c2c1ncn2C` [Compound 36, 6,9-Dihydro-9-methyl-6-n-propyl-5H-1,2,4-triazolo[3,4-i]purin-5-one] registered an MLD with male dd-mice of 300 mg/kg.

The compound `Cc1nnc2c3[nH]cnc3n(Cc3ccccc3)c(=O)n12` [Compound 37, 6-Benzyl-6,9-dihydro-3-methyl-5H-1,2,4-triazolo[3,4-i]purin-5-one] yielded an MLD with male dd-mice greater than 300 mg/kg.

`Cn1cnc2c1c1n[nH]c(=O)n1c(=O)n2Cc1ccccc1` [Compound 42, 6-Benzyl-9-methyl-2,5,6,9-tetrahydro-3H-1,2,4-triazolo[3,4-i]purin-3,5-dione] had an MLD in the data set on male dd-mice greater than 300 mg/kg.

In the case of `CCCn1c(=O)n2c(=O)[nH]nc2c2[nH]c(C3CCCC3)nc21` [Compound 43, 8-Cyclopentyl-6-n-propyl-2,5,6,9-tetrahydro-3H-1,2,4-triazolo[3,4-i]purin-3,5-dione], in the data set on male dd-mice, the MLD is recorded as greater than 300 mg/kg.

For `CCCn1c(=O)n2c(=S)[nH]nc2c2c1ncn2C` [Compound 46, 9-Methyl-6-n-propyl-2,2,6,9-tetrahydro-3-thioxo-5H-1,2,4-triazolo[3,4-i]purin-5-one], in the data set with male dd-mice, the MLD is listed as greater than 300 mg/kg.

For `CCCn1c(=O)n2c(=O)n(CC)nc2c2c1ncn2C` [Compound 48, 2-Ethyl-9-methyl-6-n-propyl-2,5,6,9-tetrahydro-3H-1,2,4-triazolo[3,4-i]purin-2,5-dione], the MLD in the data set on male dd-mice is reported as greater than 300 mg/kg.

As to `CCn1nc2c3c(ncn3C)n(Cc3ccccc3)c(=O)n2c1=O` [Compound 49, 6-Benzyl-2-ethyl-9-methyl-2,5,6,9-tetrahydro-3H-1,2,4-triazolo[3,4-i]purin-2,5-dione], the response vs control in vivo at 25 mg/kg in the data set with Wistar male rats (setting [1]) was found to be 161%; in the data set on Wistar male rats (setting [2]), 173%; with Wistar male rats (setting [3]) it was 279%; in the data set with Wistar male rats (setting [4]), 300%.

For the compound `NS(=O)(=O)c1cc(C(=O)O)c(NCc2ccco2)cc1Cl` [Furosemide, reference compound], in the data set with Wistar male rats (setting [1]), the response vs control in vivo at 25 mg/kg came to 105%.
